# Laboratory results: patent US20160326142A1, “PYRAZOLE CARBOXAMIDE COMPOUNDS, COMPOSITIONS AND METHODS OF USE” (Genentech, Inc., priority 2012, published 2016)
# Target: T1, ITK (Homo sapiens, UniProt Q08881)
# T1 construct: purchased Invitrogen PV3875
# T1 sequence (Q08881 1-620): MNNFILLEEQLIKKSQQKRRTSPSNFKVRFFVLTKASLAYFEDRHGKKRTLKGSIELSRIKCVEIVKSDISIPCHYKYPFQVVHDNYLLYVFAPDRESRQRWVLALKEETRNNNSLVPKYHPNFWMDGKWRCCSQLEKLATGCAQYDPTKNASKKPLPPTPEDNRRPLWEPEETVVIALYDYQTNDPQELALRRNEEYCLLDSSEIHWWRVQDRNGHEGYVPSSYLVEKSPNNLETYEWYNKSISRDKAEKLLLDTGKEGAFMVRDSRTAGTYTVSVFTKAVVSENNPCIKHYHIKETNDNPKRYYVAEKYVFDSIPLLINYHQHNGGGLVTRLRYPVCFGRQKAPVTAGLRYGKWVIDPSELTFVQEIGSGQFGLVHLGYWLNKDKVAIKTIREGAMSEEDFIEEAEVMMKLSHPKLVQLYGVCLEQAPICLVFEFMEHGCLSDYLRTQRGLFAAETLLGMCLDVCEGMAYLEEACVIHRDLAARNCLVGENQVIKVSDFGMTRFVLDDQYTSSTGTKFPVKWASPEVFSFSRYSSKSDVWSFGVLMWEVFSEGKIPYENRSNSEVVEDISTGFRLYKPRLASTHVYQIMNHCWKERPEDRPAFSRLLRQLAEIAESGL
# Assay: ITK enzyme assay (Caliper or LCMS peptide phosphorylation)
# Type: biochemical
# Conditions: purified ITK (Invitrogen PV3875), 20 μM ATP, Ki by Morrison's quadratic equation
# Protocol: The ability of purified ITK (Invitrogen PV3875) to catalyze peptide phosphorylation is monitored using a Caliper LabChip 3000 microfluidic unit (Caliper assay) or by liquid chromatography-mass spectrometry (LCMS) using a Waters Acquity system (LCMS assay). […] Reactions are quenched by the addition of 2,2′,2″,2′″-(ethane-1,2-diyldinitrilo)tetraacetic acid (50 mM final). Non-phosphorylated substrate and phosphorylated product peptides are separated and quantified using a Caliper LabChip 3000 instrument. […] Reactions are quenched by the addition of trichloroacetic acid (5% v/v final). Non-phosphorylated substrate and phosphorylated product peptides are separated by ultra performance LC and detected by a coupled triple quadrupole MS device applying multiple reaction monitoring (MRM) for quantification. The area of the MRM-extracted mass signal is used to assess the inhibition by test compounds. Equilibrium dissociation constant (Ki) values for ITK inhibitors are calculated from plots of activity vs. inhibitor concentration using Morrison's quadratic equation that accounts for the potential of tight binding, and by also applying the conversion factor that accounts for competitive inhibition and the concentration of ATP used in the assay relative to its apparent Michaelis constant (Km,app).
row,SMILES,Ki
1,"CC1(C)CCc2c(C(=O)Nc3cnn(C(CN4CCCC4=O)c4ccccc4)c3)n[nH]c2C1 (racemic) [Example 76, 6,6-dimethyl-N-(1-(2-(2-oxopyrrolidin-1-yl)-1-phenylethyl)-1H-pyrazol-4-yl)-4,5,6,7-tetrahydro-1H-indazole-3-carboxamide]",4 nM
2,"N#Cc1cccc(Cn2cc(NC(=O)c3n[nH]c4c3CCC(c3cn[nH]c3)C4)cn2)c1 (single isomer, unassigned) [Example 1a, N-(1-(3-cyanobenzyl)-1H-pyrazol-4-yl)-6-(1H-pyrazol-4-yl)-4,5,6,7-tetrahydro-1H-indazole-3-carboxamide]",9.4 nM
3,"N#Cc1cccc(Cn2cc(NC(=O)c3n[nH]c4c3CCC(c3cn[nH]c3)C4)cn2)c1 (single isomer, unassigned) [Example 1b, N-(1-(3-cyanobenzyl)-1H-pyrazol-4-yl)-6-(1H-pyrazol-4-yl)-4,5,6,7-tetrahydro-1H-indazole-3-carboxamide]",8.3 nM
4,"N#Cc1cccc(Cn2cc(NC(=O)c3n[nH]c4c3CC(c3cn[nH]c3)CC4)cn2)c1 (single isomer, unassigned) [Example 2a, N-(1-(3-cyanobenzyl)-1H-pyrazol-4-yl)-5-(1H-pyrazol-4-yl)-4,5,6,7-tetrahydro-1H-indazole-3-carboxamide]",68 nM
5,"N#Cc1cccc(Cn2cc(NC(=O)c3n[nH]c4c3CC(c3cn[nH]c3)CC4)cn2)c1 (single isomer, unassigned) [Example 2b, N-(1-(3-cyanobenzyl)-1H-pyrazol-4-yl)-5-(1H-pyrazol-4-yl)-4,5,6,7-tetrahydro-1H-indazole-3-carboxamide]",34 nM
6,"N#Cc1cccc(Cn2cc(NC(=O)c3n[nH]c4c3CCC(c3cncnc3)C4)cn2)c1 (single isomer, unassigned) [Example 4a, N-(1-(3-cyanobenzyl)-1H-pyrazol-4-yl)-6-(pyrimidin-5-yl)-4,5,6,7-tetrahydro-1H-indazole-3-carboxamide]",360 nM
7,"N#Cc1cccc(Cn2cc(NC(=O)c3n[nH]c4c3CCC(c3cncnc3)C4)cn2)c1 (single isomer, unassigned) [Example 4b, N-(1-(3-cyanobenzyl)-1H-pyrazol-4-yl)-6-(pyrimidin-5-yl)-4,5,6,7-tetrahydro-1H-indazole-3-carboxamide]",240 nM
8,"N#Cc1cccc(Cn2cc(NC(=O)c3n[nH]c4c3CCC(O)C4)cn2)c1 (single isomer, unassigned) [Example 5a, N-(1-(3-cyanobenzyl)-1H-pyrazol-4-yl)-6-hydroxy-4,5,6,7-tetrahydro-1H-indazole-3-carboxamide]",310 nM
9,"N#Cc1cccc(Cn2cc(NC(=O)c3n[nH]c4c3CCC(O)C4)cn2)c1 (single isomer, unassigned) [Example 5b, N-(1-(3-cyanobenzyl)-1H-pyrazol-4-yl)-6-hydroxy-4,5,6,7-tetrahydro-1H-indazole-3-carboxamide]",380 nM
10,"CC1CCc2[nH]nc(C(=O)Nc3cnn(Cc4ccccc4)c3)c2C1 (single isomer, unassigned) [Example 8a, N-(1-benzyl-1H-pyrazol-4-yl)-5-methyl-4,5,6,7-tetrahydro-1H-indazole-3-carboxamide]",70 nM
11,"CC1CCc2[nH]nc(C(=O)Nc3cnn(Cc4ccccc4)c3)c2C1 (single isomer, unassigned) [Example 8b, N-(1-benzyl-1H-pyrazol-4-yl)-5-methyl-4,5,6,7-tetrahydro-1H-indazole-3-carboxamide]",77 nM
12,"O=C(Nc1cnn(Cc2ccccc2)c1)c1n[nH]c2c1CCC(CO)C2 (single isomer, unassigned) [Example 14a, N-(1-benzyl-1H-pyrazol-4-yl)-6-(hydroxymethyl)-4,5,6,7-tetrahydro-1H-indazole-3-carboxamide]",120 nM
13,"O=C(Nc1cnn(Cc2ccccc2)c1)c1n[nH]c2c1CCC(CO)C2 (single isomer, unassigned) [Example 14b, N-(1-benzyl-1H-pyrazol-4-yl)-6-(hydroxymethyl)-4,5,6,7-tetrahydro-1H-indazole-3-carboxamide]",21 nM
14,"CN(C)CCC(c1ccccc1)n1cc(NC(=O)c2n[nH]c3c2CCC2(COC2)C3)cn1 (single isomer, unassigned) [Example 15a, N-(1-(3-(dimethylamino)-1-phenylpropyl)-1H-pyrazol-4-yl)-1,4,5,7-tetrahydrospiro[indazole-6,3′-oxetane]-3-carboxamide]",11 nM
15,"CN(C)CCC(c1ccccc1)n1cc(NC(=O)c2n[nH]c3c2CCC2(COC2)C3)cn1 (single isomer, unassigned) [Example 15b, N-(1-(3-(dimethylamino)-1-phenylpropyl)-1H-pyrazol-4-yl)-1,4,5,7-tetrahydrospiro[indazole-6,3′-oxetane]-3-carboxamide]",100 nM
16,"CN(C)CCC(c1ccccc1)n1cc(NC(=O)c2n[nH]c3c2CCC2(CC2)C3)cn1 (single isomer, unassigned) [Example 16a, N-(1-(3-(dimethylamino)-1-phenylpropyl)-1H-pyrazol-4-yl)-1′,4′,5′,7′-tetrahydrospiro[cyclopropane-1,6′-indazole]-3′-carboxamide]",0.5 nM
17,"CN(C)CCC(c1ccccc1)n1cc(NC(=O)c2n[nH]c3c2CCC2(CC2)C3)cn1 (single isomer, unassigned) [Example 16b, N-(1-(3-(dimethylamino)-1-phenylpropyl)-1H-pyrazol-4-yl)-1′,4′,5′,7′-tetrahydrospiro[cyclopropane-1,6′-indazole]-3′-carboxamide]",7.9 nM
18,"O=C(Nc1cnn(Cc2ccccc2)c1)c1n[nH]c2c1C1CC1CC2 (single isomer, unassigned) [Example 23a, N-(1-benzyl-1H-pyrazol-4-yl)-3,4,5,5a,6,6a-hexahydrocyclopropa[e]indazole-1-carboxamide]",24 nM
19,"O=C(Nc1cnn(Cc2ccccc2)c1)c1n[nH]c2c1C1CC1CC2 (single isomer, unassigned) [Example 23b, N-(1-benzyl-1H-pyrazol-4-yl)-3,4,5,5a,6,6a-hexahydrocyclopropa[e]indazole-1-carboxamide]",550 nM
20,"CC[C@@H](c1ccccc1)n1cc(NC(=O)c2n[nH]c3c2CC2CC2C3)cn1 (single isomer, unassigned) [Example 24a]",9.4 nM
21,"CC[C@@H](c1ccccc1)n1cc(NC(=O)c2n[nH]c3c2CC2CC2C3)cn1 (single isomer, unassigned) [Example 24b]",3.5 nM
22,"CC[C@@H](c1ccccc1)n1cc(NC(=O)c2n[nH]c3c2C2CC2CC3)cn1 (single isomer, unassigned) [Example 25a]",1.7 nM
23,"CC[C@@H](c1ccccc1)n1cc(NC(=O)c2n[nH]c3c2C2CC2CC3)cn1 (single isomer, unassigned) [Example 25b]",94 nM
24,"CN(C)CCC(c1ccccc1)n1cc(NC(=O)c2n[nH]c3c2C2CC2CC3)cn1 (single isomer, unassigned) [Example 26a, N-(1-(3-(dimethylamino)-1-phenylpropyl)-1H-pyrazol-4-yl)-3,4,5,5a,6,6a-hexahydrocyclopropa[e]indazole-1-carboxamide]",2 nM
25,"CN(C)CCC(c1ccccc1)n1cc(NC(=O)c2n[nH]c3c2C2CC2CC3)cn1 (single isomer, unassigned) [Example 26b, N-(1-(3-(dimethylamino)-1-phenylpropyl)-1H-pyrazol-4-yl)-3,4,5,5a,6,6a-hexahydrocyclopropa[e]indazole-1-carboxamide]",46 nM
26,"CN(C)CCC(c1ccccc1)n1cc(NC(=O)c2n[nH]c3c2C2CC2CC3)cn1 (single isomer, unassigned) [Example 26c, N-(1-(3-(dimethylamino)-1-phenylpropyl)-1H-pyrazol-4-yl)-3,4,5,5a,6,6a-hexahydrocyclopropa[e]indazole-1-carboxamide]",22 nM
27,"CN(C)CCC(c1ccccc1)n1cc(NC(=O)c2n[nH]c3c2C2CC2CC3)cn1 (single isomer, unassigned) [Example 26d, N-(1-(3-(dimethylamino)-1-phenylpropyl)-1H-pyrazol-4-yl)-3,4,5,5a,6,6a-hexahydrocyclopropa[e]indazole-1-carboxamide]",780 nM
28,"Cn1cc(C(c2ccccc2)n2cc(NC(=O)c3n[nH]c4c3CC3CC3C4)cn2)cn1 (single isomer, unassigned) [Example 27a, N-(1-((1-methyl-1H-pyrazol-4-yl)(phenyl)methyl)-1H-pyrazol-4-yl)-1,4,4a,5,5a,6-hexahydro cyclopropa[f]indazole-3-carboxamide]",30 nM
